According to article PMC12656565, “In Vitro and Ultrastructural Evaluation of the Cytotoxic and Antileishmanial Activities of Thiosemicarbazone Compounds Against Promastigotes and Axenic Amastigotes of Leishmania infantum” (Tropical Medicine and Infectious Disease, 2025):
“Also recorded” adds a separate entry of the source.

What was measured:
[1] = tested on: L. infantum promastigote cells; test: Mitochondrial membrane potential (Rhodamine 123, flow cytometry); assay type: cell-based, Leishmania infantum; details: for Variability Index (VI), range: range over the tested concentrations (1× and 2× IC50; H2O2 control)
Protocol: To evaluate the effects of compounds on the mitochondrial membrane potential (ΔΨm) of Leishmania infantum, the cationic probe Rhodamine 123 (Rod 123) was used through quantitative flow cytometry analysis. […] After incubation, cells were centrifuged at 3000× g for 5 min, and supernatants discarded. […] Hydrogen peroxide (H2O2) at 1 μM was used as positive control, previously described in the literature as an inducer of mitochondrial potential loss. Cells were analyzed by flow cytometry on the FACSCalibur equipment (Becton & Dickinson, San José, CA, USA), with excitation at 488 nm and detection at 505/534 nm. Fifty thousand events per sample were acquired. Data were expressed as percentage of cells stained with Rhodamine 123 for each tested condition. Fluorescence variation was quantified by Variation Index (VI), calculated by the equation: VI = (MT − MC)/MC, where MT corresponds to the median fluorescence of treated cells and MC to the median of control cells (untreated).

J774.A1 macrophages = tested on: J774.A1 macrophages; parameters: method as in PMID 33590474; details: highest concentration tested 75 µM, previously determined in collaboration with Jacob et al., ref [20]; cited from earlier work
[2] = tested on: L. infantum axenic amastigotes; test: Ultrastructural analysis (SEM/TEM) of axenic amastigote forms; assay type: cell-based, Leishmania infantum; details: 1× and 2× IC50 (Amphotericin B 1× IC50), 72 h
Protocol: Differentiation of L. infantum promastigote forms into axenic amastigote forms was carried out according to the protocol by Oliveira et al., with adaptations. Stationary-phase promastigotes (72 h) were cultured in modified Schneider’s Drosophila medium supplemented with 10% fetal bovine serum (FBS) at 26 °C. Cells were collected by centrifugation (3000× g for 10 min at 4 °C), washed three times with PBS (150 mM NaCl, 20 mM phosphate buffer, pH 7.2), and adjusted to 1 × 10^6 cells/mL. Differentiation was induced in acidified Schneider’s medium (pH 5.5), supplemented with 2.5% FBS, incubated at 32 °C for seven days.
Axenic amastigotes were obtained from stationary-phase promastigotes of L. infantum following standard differentiation protocols. The cultures were maintained under controlled conditions and monitored daily by optical microscopy. Morphological observations confirmed the transition from elongated promastigotes to rounded amastigote-like forms with internalized or absent flagella. […] Cultures were regularly examined for microbial contamination, and no evidence of bacterial or fungal contamination was detected during the differentiation or experimental periods. Axenic amastigotes were exposed to compounds LT-73 and LT-75 at concentrations corresponding to the IC50 and 2× IC50, previously determined for promastigotes based on leishmanicidal activity, for analysis by scanning (SEM) and transmission electron microscopy (TEM). […]
After this period, cells were washed with PBS (phosphate-buffered saline) and fixed in a solution containing 2.5% glutaraldehyde and 4% formaldehyde in 0.1 M phosphate buffer (pH 7.4) for 24 h at 4 °C. […] Sections were contrasted with 2% uranyl acetate for 30 min and 2.5% lead citrate for 10 min, then analyzed using a Tecnai G2 Spirit TEM (FEI). […]
All images were acquired under standardized laboratory protocols. A minimum of 50 parasites per condition were analyzed by two blinded investigators and no visible precipitation or crystallization occurred during fixation.

C[C@@H]1[C@H](O)[C@@H](C)/C=C/C=C/C=C/C=C/C=C/C=C/C=C/[C@H](O[C@@H]2O[C@H](C)[C@@H](O)[C@H](N)[C@@H]2O)C[C@@H]2O[C@](O)(C[C@@H](O)C[C@@H](O)[C@H](O)CC[C@@H](O)C[C@@H](O)CC(=O)O[C@H]1C)C[C@H](O)[C@H]2C(=O)O [Amphotericin B, reference compound]
Mean (Rho 123 fluorescence) ([1]; 1× IC50, 72 h): 213 ± 1
Variation (Variation Index, VI = (MT − MC)/MC) ([1]; 1× IC50, 72 h): −0.70 ± 0.01
Mean (Rho 123 fluorescence) ([1]; 2× IC50, 72 h): 193 ± 3
Variation (Variation Index, VI = (MT − MC)/MC) ([1]; 2× IC50, 72 h): −0.73 ± 0.02
Variability Index (VI), range [1]: −0.018 to −0.73
CC50 (J774.A1 macrophages): 14 ± 0.3 µM
TEM ultrastructural alterations [2]: plasma membrane rupture, alterations in the kinetoplast, and mitochondrial swelling

S=C(N/N=C/c1c[nH]c2ncccc12)Nc1ccccc1 [LT-73]
Mean (Rho 123 fluorescence) ([1]; 1× IC50, 72 h): 658 ± 9
Variation (Variation Index, VI = (MT − MC)/MC) ([1]; 1× IC50, 72 h): −0.07 ± 0.05
Mitochondrial membrane depolarization (in words) ([1]; 1× and 2× IC50, 72 h): depolarization of the mitochondrial membrane; also recorded: induced a alteration in Δψm
Mean (Rho 123 fluorescence) ([1]; 2× IC50, 72 h): 697 ± 7
Variation (Variation Index, VI = (MT − MC)/MC) ([1]; 2× IC50, 72 h): −0.02 ± 0.03
Variability Index (VI), range [1]: −0.02 to −0.07
CC50 (J774.A1 macrophages): > 75 µM
TEM ultrastructural alterations [2]: significant alterations in the plasma membrane and flagellar pocket, chromatin condensation, mitochondrial swelling, and an increased number of intracellular vacuoles

N#Cc1ccc2[nH]cc(/C=N/NC(=S)Nc3ccc(Cl)cc3)c2c1 [LT-75]
Mean (Rho 123 fluorescence) ([1]; 1× IC50, 72 h): 1425 ± 106
Variation (Variation Index, VI = (MT − MC)/MC) ([1]; 1× IC50, 72 h): 1 ± 0.23
Mean (Rho 123 fluorescence) ([1]; 2× IC50, 72 h): 1000 ± 21
Variation (Variation Index, VI = (MT − MC)/MC) ([1]; 2× IC50, 72 h): 0.41 ± 0.05
CC50 (J774.A1 macrophages): > 75 µM
TEM ultrastructural alterations [2]: severe damage to the plasma membrane and cytoskeleton
